PMC11982978, “Cancer hotspot mutations rewire ERK2 specificity by selective exclusion of docking interactions” (The Journal of Biological Chemistry, 2025)
Peptide text beside a SMILES is read from it. * marks the point of attachment. Biotin = O=C1N[C@H]2[C@H](CS[C@H]2CCCCC(=O)*)N1

Experiments:
Type in all cases: biochemical
ERK2 WT = molecular target: T1, ERK2 WT (Mus musculus, UniProt P63085); assay: Competitive peptide kinase assay (D-peptide inhibition), ERK2 WT; conditions: Table S1, 5 μM reporter peptide, 10 nM ERK2, 10 μM ATP, three independent experiments
T1 construct: His6; made in house; host or cells: E. coli BL21(DE3), co-expressed with GST-MEK1ΔN3
T1 sequence (P63085 whole entry): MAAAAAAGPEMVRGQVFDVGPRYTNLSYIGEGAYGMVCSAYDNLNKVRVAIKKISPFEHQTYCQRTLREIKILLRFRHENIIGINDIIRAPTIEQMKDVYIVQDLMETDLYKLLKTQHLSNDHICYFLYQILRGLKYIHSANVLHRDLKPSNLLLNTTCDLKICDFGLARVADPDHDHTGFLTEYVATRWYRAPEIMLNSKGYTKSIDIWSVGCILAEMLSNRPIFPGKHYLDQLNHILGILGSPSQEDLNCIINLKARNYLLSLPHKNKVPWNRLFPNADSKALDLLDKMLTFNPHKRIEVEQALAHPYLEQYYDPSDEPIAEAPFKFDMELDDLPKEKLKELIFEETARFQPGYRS
Protocol: (§1) We determined relative binding affinities for D-peptides from their potency as competitive inhibitors of WT or mutant ERK2 activity on a D-site-dependent reporter substrate peptide (Table S1, Fig. 3A, S3).
(§2) Competitive peptide kinase assays were performed with a D-site dependent MAPK reporter substrate peptide (AssayQuant Technologies Inc, #AQT0376) as we reported previously ([15]). Briefly, 5 μM of reporter peptide was mixed with various concentrations of D-peptides in reaction buffer (54 mM HEPES [pH 7.4], 1.2 mM DTT, 0.01% Brij-35, 1% glycerol, 0.2 mg/ml BSA, and 10 mM MgCl2). […] Phosphorylation of the reporter peptide was measured by fluorescence (λex 360 nm, λem 485 nm) in 90 s intervals over 21 min in a Spectra M5 plate reader. Rates were calculated from the linear portion of the reaction progress curve, and data were normalized to maximum (samples lacking competitor peptide) and minimum (control reactions lacking kinase) values. Normalized rates were plotted against D-peptide concentration and fitted into a sigmoidal dose-response curve to determine the IC50 values using GraphPad Prism (Version 9.3.0).

ERK2 D319N = molecular target: T2, ERK2 D319N (Mus musculus, UniProt P63085, D319N); assay: Competitive peptide kinase assay (D-peptide inhibition), ERK2 D319N; conditions: Table S1, 5 μM reporter peptide, 10 nM ERK2, 10 μM ATP, three independent experiments
T2 construct: His6; made in house; host or cells: E. coli BL21(DE3), co-expressed with GST-MEK1ΔN3
T2 sequence (P63085 whole entry D319N): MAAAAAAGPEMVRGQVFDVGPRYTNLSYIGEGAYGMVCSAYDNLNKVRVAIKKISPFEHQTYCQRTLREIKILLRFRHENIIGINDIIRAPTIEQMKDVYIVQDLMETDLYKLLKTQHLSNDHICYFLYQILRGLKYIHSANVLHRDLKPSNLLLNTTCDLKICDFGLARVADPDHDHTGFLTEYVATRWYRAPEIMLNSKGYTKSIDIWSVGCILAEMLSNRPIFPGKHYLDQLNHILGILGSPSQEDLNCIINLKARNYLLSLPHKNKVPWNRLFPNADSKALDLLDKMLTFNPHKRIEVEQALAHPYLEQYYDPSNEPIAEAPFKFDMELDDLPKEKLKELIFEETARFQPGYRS
Protocol: as §1, §2

ERK2 R133K = molecular target: T3, ERK2 R133K (Mus musculus, UniProt P63085, R133K); assay: Competitive peptide kinase assay (D-peptide inhibition), ERK2 R133K; conditions: Table S1, 5 μM reporter peptide, 10 nM ERK2, 10 μM ATP, three independent experiments
T3 construct: His6; made in house; host or cells: E. coli BL21(DE3), co-expressed with GST-MEK1ΔN3
T3 sequence (P63085 whole entry R133K): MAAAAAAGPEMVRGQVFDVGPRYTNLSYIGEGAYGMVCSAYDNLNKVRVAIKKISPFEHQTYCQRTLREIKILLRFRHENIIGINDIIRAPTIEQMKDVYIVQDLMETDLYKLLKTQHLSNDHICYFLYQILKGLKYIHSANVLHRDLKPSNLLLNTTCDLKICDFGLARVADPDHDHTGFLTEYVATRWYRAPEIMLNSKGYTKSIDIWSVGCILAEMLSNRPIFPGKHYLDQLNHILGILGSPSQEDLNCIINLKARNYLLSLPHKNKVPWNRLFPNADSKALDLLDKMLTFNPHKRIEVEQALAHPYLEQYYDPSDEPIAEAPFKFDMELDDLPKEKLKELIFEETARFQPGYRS
Protocol: as §1, §2

ERK2 E322K = molecular target: T4, ERK2 E322K (Mus musculus, UniProt P63085, E320K); assay: Competitive peptide kinase assay (D-peptide inhibition), ERK2 E322K; conditions: Table S1, 5 μM reporter peptide, 10 nM ERK2, 10 μM ATP, three independent experiments
T4 construct: His6; made in house; host or cells: E. coli BL21(DE3), co-expressed with GST-MEK1ΔN3
T4 sequence (P63085 whole entry E320K): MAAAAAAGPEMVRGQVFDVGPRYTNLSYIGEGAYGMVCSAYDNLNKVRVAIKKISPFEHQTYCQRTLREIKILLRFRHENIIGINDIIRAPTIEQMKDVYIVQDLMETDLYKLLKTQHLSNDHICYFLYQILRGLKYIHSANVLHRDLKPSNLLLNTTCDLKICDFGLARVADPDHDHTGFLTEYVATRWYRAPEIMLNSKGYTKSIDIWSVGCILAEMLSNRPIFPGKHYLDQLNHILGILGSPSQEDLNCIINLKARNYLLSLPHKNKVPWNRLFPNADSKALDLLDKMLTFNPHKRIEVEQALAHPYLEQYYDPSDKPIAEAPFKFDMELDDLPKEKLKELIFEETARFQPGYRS
Protocol: as §1, §2

His6-ERK2 WT = assay: Radiolabel kinase assay with competing D-peptide; conditions: 10 μM KMT2C D-peptide, WT without peptide = 100.0; for ELK1 WT phosphorylation, Normalized: 0.5 μM GST-ELK1 WT; for ELK1 WT phosphorylation, Normalized / ELK1 ΔD phosphorylation, Normalized: 10 nM ERK2 WT; for ELK1 ΔD phosphorylation, Normalized: 0.5 μM GST-ELK1 ΔD; for GEF-H1 phosphorylation, Normalized: 0.5 μM His6-GEF-H1, 10 nM ERK2 WT
Excerpt: Based on our structural and mutational analysis, we hypothesized that ERK2 CD site mutants should not bind or efficiently phosphorylate validated ERK2 substrates containing an I/L-x-x-R-R D-site motif. We previously reported that while ISG20 interacts physically with ERK2 in cells, it is not an ERK2 substrate in vitro ([15]). […] We previously reported that disruption of the GEF-H1 docking motif reduced its extent of co-immunoprecipitation with ERK2 ([15]). Accordingly, we investigated whether cancer-associated ERK2 mutants were impaired in phosphorylating GEF-H1. […] The level of phosphorylation by CD site mutants was similar to that of WT ERK2 when assayed in the presence of excess competing D-peptide to block docking interactions.
Radiolabel kinase assays were performed as described previously by incubating 0.5 μM MAPK substrate (His6-GEF-H1, GST-ELK1^WT or GST-ELK1^ΔD), 10 nM His6-ERK2 (WT, R133K, D319N or E320K) and 10 μM inhibitor peptide KMT2C where indicated (biotin-RKRSKPKLKLKIIN-amide, Tufts University Core Facility) in reaction buffer (20 mM HEPES, 10 mM MgCl2, 1 mM DTT, 1% DMSO, 10 μM cold ATP, and 0.038 μCi/μl [γ-^32P] ATP) at 30 °C for 2 min. Reactions were quenched by the addition of 4x SDS-PAGE loading buffer and heated to 95 °C for 5 min before SDS-PAGE fractionation. Gels were stained with Coomassie blue, destained, dried, and exposed to a phosphor screen. Radiolabel incorporation was measured with Molecular Imager FX phosphorimager (Bio-Rad), and ^32P signal density (CNT/mm^2) was quantified using QuantityOne Software (Bio-Rad version 11.0.5). All signals were normalized to the vehicle control condition. Raw quantified data are provided in Dataset S3.

Compound	IC50 (ERK2 WT) [µM]	IC50 (ERK2 D319N) [µM]	IC50 (ERK2 R133K) [µM]	IC50 (ERK2 E322K) [µM]	also measured
CC(C)C[C@H](NC(=O)CNC(=O)[C@H](CCCCN)NC(=O)[C@H](Cc1ccccc1)NC(=O)[C@H](CC(N)=O)NC(=O)[C@H](CCCCN)NC(=O)[C@H](Cc1c[nH]c2ccccc12)NC(=O)[C@H](CCCCN)NC(=O)[C@@H]1CCCN1C(=O)[C@H](CO)NC(=O)[C@H](C)NC(=O)[C@@H](N)Cc1ccc(O)cc1)C(=O)N[C@@H](CCCCN)C(=O)N[C@@H](CC(C)C)C(=O)N[C@@H](CC(C)C)C(=O)N[C@@H](CS)C(=O)O [MLXIPL] (H-YASPKWKNFKGLKLLC-OH)	18	26	23	28	
CC(C)C[C@H](NC(=O)[C@@H](NC(=O)[C@H](CC(C)C)NC(=O)[C@H](CO)NC(=O)[C@@H](NC(=O)[C@H](CC(N)=O)NC(=O)[C@H](CO)NC(=O)CNC(=O)[C@H](CCCNC(=N)N)NC(=O)[C@H](CCCNC(=N)N)NC(=O)[C@H](CCC(=O)O)NC(=O)[C@H](CCC(N)=O)NC(=O)[C@H](CC(C)C)NC(=O)CNC(=O)[C@H](C)NC(=O)[C@@H](N)Cc1ccc(O)cc1)C(C)C)[C@@H](C)O)C(=O)O [PTPN5] (H-YAGLQERRGSNVSLTL-OH)	42	600	760	600	
CC[C@H](C)[C@H](NC(=O)[C@H](C)NC(=O)[C@@H](N)Cc1ccc(O)cc1)C(=O)N[C@@H](CCCCN)C(=O)NCC(=O)N[C@@H](CCCCN)C(=O)N[C@@H](CCCNC(=N)N)C(=O)N[C@@H](CCCNC(=N)N)C(=O)N[C@@H](CCCNC(=N)N)C(=O)N[C@@H](CCCCN)C(=O)N[C@@H](CCCCN)C(=O)N[C@@H](CC(C)C)C(=O)N[C@H](C(=O)N[C@@H](CC(C)C)C(=O)N[C@@H](C)C(=O)N[C@@H](CCCCN)C(=O)O)[C@@H](C)CC [ZBED6] (H-YAIKGKRRRKKLILAK-OH)	6.8	23	6.2	56	
Biotin-RKRSKPKLKLKIIN-NH2 [D-pep]					ELK1 WT phosphorylation, Normalized (His6-ERK2 WT; Replicate 1): 66.2; ELK1 WT phosphorylation, Normalized (His6-ERK2 WT; Replicate 2): 52.7; ELK1 WT phosphorylation, Normalized (His6-ERK2 WT; Replicate 3): 42.6; ELK1 ΔD phosphorylation, Normalized (His6-ERK2 WT; Replicate 1): 107.4; ELK1 ΔD phosphorylation, Normalized (His6-ERK2 WT; Replicate 2): 80.5; ELK1 ΔD phosphorylation, Normalized (His6-ERK2 WT; Replicate 3): 85.4; GEF-H1 phosphorylation, Normalized (His6-ERK2 WT; 30 °C 2 min, Replicate 1): 23.5; GEF-H1 phosphorylation, Normalized (His6-ERK2 WT; Replicate 2): 37.1; GEF-H1 phosphorylation, Normalized (His6-ERK2 WT; Replicate 3): 54.2
CC[C@H](C)[C@H](NC(=O)[C@H](CC(C)C)NC(=O)[C@@H]1CCCN1C(=O)[C@H](CCC(=O)O)NC(=O)[C@@H]1CCCN1C(=O)[C@H](CCCNC(=N)N)NC(=O)[C@@H]1CCCN1C(=O)[C@H](CCCNC(=N)N)NC(=O)[C@H](CCC(N)=O)NC(=O)[C@H](CCCCN)NC(=O)[C@@H]1CCCN1C(=O)[C@H](C)NC(=O)[C@@H](N)Cc1ccc(O)cc1)C(=O)N[C@H](C(=O)N1CCC[C@H]1C(=O)N[C@H](C(=O)O)[C@@H](C)O)[C@@H](C)CC [ELMSAN1] (H-YAPKQRPRPEPLIIPT-OH)	24	30	27	40	
CC[C@H](C)[C@H](NC(=O)[C@@H](NC(=O)[C@H](CC(C)C)NC(=O)[C@H](C)NC(=O)[C@@H]1CCCN1C(=O)[C@H](CC(C)C)NC(=O)[C@@H](NC(=O)[C@@H]1CCCN1C(=O)[C@H](CCCCN)NC(=O)[C@H](CCCNC(=N)N)NC(=O)[C@H](CCCNC(=N)N)NC(=O)[C@H](C)NC(=O)[C@H](C)NC(=O)[C@@H](N)Cc1ccc(O)cc1)C(C)C)[C@@H](C)O)C(=O)N[C@@H](CC(N)=O)C(=O)N1CCC[C@H]1C(=O)O [MAP2K2] (H-YAARRKPVLPALTINP-OH)	23	23	29	41	
CC(C)C[C@H](NC(=O)[C@H](CC(C)C)NC(=O)[C@H](CC(C)C)NC(=O)[C@H](CCCNC(=N)N)NC(=O)[C@H](CCCCN)NC(=O)[C@@H]1CCCN1C(=O)[C@H](CCCCN)NC(=O)[C@@H]1CCCN1C(=O)CNC(=O)[C@H](CCCNC(=N)N)NC(=O)[C@H](CCCCN)NC(=O)[C@H](CCCNC(=N)N)NC(=O)[C@H](C)NC(=O)[C@@H](N)Cc1ccc(O)cc1)C(=O)N[C@@H](CCC(N)=O)C(=O)N[C@@H](CCCNC(=N)N)C(=O)O [CBX7] (H-YARKRGPKPKRLLLQR-OH)	5.1	9.8	5.7	14	
CC(C)C[C@H](NC(=O)[C@H](C)NC(=O)[C@@H](N)Cc1ccc(O)cc1)C(=O)N[C@@H](CCC(N)=O)C(=O)N[C@@H](CCC(N)=O)C(=O)N[C@@H](CCCNC(=N)N)C(=O)N[C@@H](CCCNC(=N)N)C(=O)N[C@@H](CC(C)C)C(=O)N[C@@H](CCC(N)=O)C(=O)N[C@@H](Cc1c[nH]cn1)C(=O)N[C@@H](CCCNC(=N)N)C(=O)N[C@@H](CC(C)C)C(=O)N[C@@H](CCCNC(=N)N)C(=O)N[C@@H](CC(C)C)C(=O)N[C@@H](CCCNC(=N)N)C(=O)N[C@@H](C)C(=O)O [AEBP1] (H-YALQQRRLQHRLRLRA-OH)	16	120	110	160	
CC(C)C[C@H](NC(=O)[C@H](CC(=O)O)NC(=O)[C@H](CCCNC(=N)N)NC(=O)[C@@H]1CCCN1C(=O)[C@H](CCCCN)NC(=O)[C@H](CCCNC(=N)N)NC(=O)CNC(=O)[C@H](CCCCN)NC(=O)[C@H](C)NC(=O)[C@@H](N)Cc1ccc(O)cc1)C(=O)N[C@@H](CCC(=O)O)C(=O)N[C@@H](CC(C)C)C(=O)N1CCC[C@H]1C(=O)N[C@@H](CC(C)C)C(=O)N[C@@H](CO)C(=O)N1CCC[C@H]1C(=O)O [ELK1] (H-YAKGRKPRDLELPLSP-OH)	35	32	58	43	
CC(C)C[C@H](NC(=O)[C@H](C)NC(=O)[C@@H](N)Cc1ccc(O)cc1)C(=O)NCC(=O)N[C@@H](CO)C(=O)N[C@@H](CCCNC(=N)N)C(=O)N[C@@H](CCCNC(=N)N)C(=O)NCC(=O)N[C@@H](CCCNC(=N)N)C(=O)N[C@@H](CO)C(=O)N[C@@H](CO)C(=O)N[C@@H](CC(C)C)C(=O)N[C@@H](CO)C(=O)N[C@@H](CC(C)C)C(=O)N[C@@H](C)C(=O)N[C@@H](CCCCN)C(=O)O [ARHGEF2]		300			
CC[C@H](C)[C@H](NC(=O)[C@@H](NC(=O)[C@H](CCC(=O)O)NC(=O)[C@H](CCSC)NC(=O)[C@H](CCC(N)=O)NC(=O)[C@H](CCCNC(=N)N)NC(=O)[C@H](CCCNC(=N)N)NC(=O)[C@H](CC(N)=O)NC(=O)[C@H](CCCNC(=N)N)NC(=O)[C@H](CC(C)C)NC(=O)[C@H](C)NC(=O)[C@@H](N)Cc1ccc(O)cc1)C(C)C)C(=O)N[C@@H](CO)C(=O)N[C@@H](CC(C)C)C(=O)N[C@@H](CCCNC(=N)N)C(=O)N[C@@H](CC(C)C)C(=O)O [DISC1] (H-YALRNRRQMEVISLRL-OH)	23	79	74	110	
CC(C)C[C@H](NC(=O)CNC(=O)[C@H](CCCNC(=N)N)NC(=O)[C@H](CCCNC(=N)N)NC(=O)[C@H](C)NC(=O)[C@H](CS)NC(=O)[C@H](CC(C)C)NC(=O)[C@H](C)NC(=O)[C@@H](N)Cc1ccc(O)cc1)C(=O)N[C@@H](Cc1ccc(O)cc1)C(=O)N[C@@H](CS)C(=O)N[C@@H](CC(C)C)C(=O)N[C@@H](CO)C(=O)N[C@@H](CC(C)C)C(=O)N[C@@H](CC(=O)O)C(=O)N[C@@H](Cc1c[nH]cn1)C(=O)O [FAAP100]	92	> 200	> 200	> 200	
